Activity calls are given as the source filed them. No cut-off for these calls is given here.
Experiments:
[1] = molecular target: T1, Nonstructural protein 5A (Hepatitis C virus) (UniProt Q5L478); experiment: Potency index, ratio of EC50 of DCV to EC50 of compound for inhibition of HCV genotype 2a con NS5A infected in HuH-Lcu-Neo cells assessed as reduction in viral replication incubated for 48 hrs by luciferase reporter gene assay; type: cell-based; conditions: Hepatitis C virus subtype 2a
T1 sequence (whole entry): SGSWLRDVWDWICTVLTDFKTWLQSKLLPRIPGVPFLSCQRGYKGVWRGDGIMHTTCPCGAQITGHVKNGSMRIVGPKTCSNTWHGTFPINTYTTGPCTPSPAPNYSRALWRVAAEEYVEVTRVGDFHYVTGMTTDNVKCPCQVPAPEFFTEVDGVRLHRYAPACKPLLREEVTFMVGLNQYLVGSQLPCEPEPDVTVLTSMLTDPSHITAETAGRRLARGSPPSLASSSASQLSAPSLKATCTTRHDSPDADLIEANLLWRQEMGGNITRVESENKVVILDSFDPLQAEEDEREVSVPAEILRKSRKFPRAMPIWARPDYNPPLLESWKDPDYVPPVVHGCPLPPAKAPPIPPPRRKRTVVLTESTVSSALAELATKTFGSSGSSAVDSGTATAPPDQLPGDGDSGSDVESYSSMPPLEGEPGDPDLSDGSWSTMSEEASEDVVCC

[2] = molecular target: T1, Nonstructural protein 5A (Hepatitis C virus); experiment: Potency index, ratio of EC50 of DCV to EC50 of compound for inhibition of patient-derived HCV genotype 2a NS5A infected in HuH-Lcu-Neo cells assessed as reduction in viral replication incubated for 48 hrs by luciferase reporter gene assay; type: cell-based; conditions: Hepatitis C virus subtype 2a
[3] = molecular target: T1, Nonstructural protein 5A (Hepatitis C virus); experiment: Potency index, ratio of EC50 of DCV to EC50 of compound for inhibition of HCV genotype 3a con NS5A infected in HuH-Lcu-Neo cells assessed as reduction in viral replication incubated for 48 hrs by luciferase reporter gene assay; type: cell-based; conditions: Hepatitis C virus subtype 3a
[4] = molecular target: T1, Nonstructural protein 5A (Hepatitis C virus); experiment: Potency index, ratio of EC50 of DCV to EC50 of compound for inhibition of patient-derived HCV genotype 3a NS5A infected in HuH-Lcu-Neo cells assessed as reduction in viral replication incubated for 48 hrs by luciferase reporter gene assay; type: cell-based; conditions: Hepatitis C virus subtype 3a
[5] = molecular target: T1, Nonstructural protein 5A (Hepatitis C virus); experiment: Inhibition of HCV genotype 1a NS5A infected in HuH-Lcu-Neo cells assessed as log reduction in virus RNA level at 10 times of EC90 incubated for 21 days by luciferase reporter gene assay; type: cell-based; conditions: Hepatitis C virus subtype 1a
[6] = molecular target: T1, Nonstructural protein 5A (Hepatitis C virus); experiment: Inhibition of HCV genotype 1b NS5A infected in HuH-Lcu-Neo cells assessed as log reduction in virus RNA level at 10 times of EC90 incubated for 21 days by luciferase reporter gene assay; type: cell-based; conditions: Hepatitis C virus subtype 1b
[7] = molecular target: T1, Nonstructural protein 5A (Hepatitis C virus); experiment: Inhibition of HCV genotype 2a con NS5A infected in HuH-Lcu-Neo cells assessed as fold reduction in virus RNA level at 10 times of EC90 incubated for 21 days by luciferase reporter gene assay; type: cell-based; conditions: Hepatitis C virus subtype 2a
[8] = molecular target: T1, Nonstructural protein 5A (Hepatitis C virus); experiment: Inhibition of HCV genotype 3a con NS5A infected in HuH-Lcu-Neo cells assessed as fold reduction in virus RNA level at 10 times of EC90 incubated for 21 days by luciferase reporter gene assay; type: cell-based; conditions: Hepatitis C virus subtype 3a
[9] = molecular target: T1, Nonstructural protein 5A (Hepatitis C virus); experiment: Inhibition of HCV NS5A infected in HuH-Lcu-Neo cells assessed as reduction in viral replication in presence of ribavirin incubated for 48 hrs by luciferase reporter gene assay; type: cell-based; conditions: Hepacivirus hominis
[10] = molecular target: T1, Nonstructural protein 5A (Hepatitis C virus); experiment: Inhibition of HCV NS5A infected in HuH-Lcu-Neo cells assessed as reduction in viral replication in presence of BILN2061 incubated for 48 hrs by luciferase reporter gene assay; type: cell-based; conditions: Hepacivirus hominis
[11] = molecular target: T1, Nonstructural protein 5A (Hepatitis C virus); experiment: Inhibition of HCV NS5A infected in HuH-Lcu-Neo cells assessed as reduction in viral replication in presence of NM107 incubated for 48 hrs by luciferase reporter gene assay; type: cell-based; conditions: Hepacivirus hominis
[12] = molecular target: T1, Nonstructural protein 5A (Hepatitis C virus); experiment: Inhibition of HCV NS5A infected in HuH-Lcu-Neo cells assessed as reduction in viral replication in presence of NNI incubated for 48 hrs by luciferase reporter gene assay; type: cell-based; conditions: Hepacivirus hominis
[13] = Clearance in CD1 mouse at 1 mg/kg, iv by LC-MS/MS analysis; type: ADME, organism-based; conditions: in vivo
[14] = Volume of distribution at steady state in CD1 mouse at 1 mg/kg, iv by LC-MS/MS analysis; type: ADME, organism-based; conditions: in vivo, read-out: Vdss
[15] = Half life in CD1 mouse at 1 mg/kg, iv by LC-MS/MS analysis; type: ADME, organism-based; conditions: in vivo
[16] = AUC (0 to t) in CD1 mouse at 1 mg/kg, iv by LC-MS/MS analysis; type: ADME, organism-based; conditions: in vivo
[17] = AUC (0 to infinity) in CD1 mouse at 1 mg/kg, iv by LC-MS/MS analysis; type: ADME, organism-based; set-up: dose 1 mg/kg, time infinity, route intravenous; conditions: in vivo
[18] = Half life in CD1 mouse at 5 mg/kg, po by LC-MS/MS analysis; type: ADME, organism-based; conditions: in vivo
[19] = Cmax in CD1 mouse at 5 mg/kg, po by LC-MS/MS analysis; type: ADME, organism-based; set-up: dose 5 mg/kg, route oral; conditions: in vivo
[20] = Tmax in CD1 mouse at 5 mg/kg, po by LC-MS/MS analysis; type: ADME, organism-based; conditions: in vivo
[21] = AUC (0 to t) in CD1 mouse at 5 mg/kg, po by LC-MS/MS analysis; type: ADME, organism-based; conditions: in vivo
[22] = AUC (0 to infinity) in CD1 mouse at 5 mg/kg, po by LC-MS/MS analysis; type: ADME, organism-based; set-up: dose 5 mg/kg, route oral, time infinity; conditions: in vivo
[23] = Oral bioavailability in CD1 mouse at 5 mg/kg by LC-MS/MS analysis; type: ADME, organism-based; conditions: in vivo
[24] = Clearance in Han Wistar rat at 1 mg/kg, iv by LC-MS/MS analysis; type: ADME, organism-based; conditions: in vivo
[25] = Volume of distribution at steady state in Han Wistar rat at 1 mg/kg, iv by LC-MS/MS analysis; type: ADME, organism-based; conditions: in vivo, read-out: Vdss
[26] = Half life in Han Wistar rat at 1 mg/kg, iv by LC-MS/MS analysis; type: ADME, organism-based; conditions: in vivo
[27] = AUC (0 to t) in Han Wistar rat at 1 mg/kg, iv by LC-MS/MS analysis; type: ADME, organism-based; conditions: in vivo
[28] = AUC (0 to infinity) in Han Wistar rat at 1 mg/kg, iv by LC-MS/MS analysis; type: ADME, organism-based; set-up: dose 1 mg/kg, time infinity, route intravenous; conditions: in vivo
[29] = Half life in Han Wistar rat at 5 mg/kg, po by LC-MS/MS analysis; type: ADME, organism-based; conditions: in vivo
[30] = Cmax in Han Wistar rat at 5 mg/kg, po by LC-MS/MS analysis; type: ADME, organism-based; set-up: dose 5 mg/kg, route oral; conditions: in vivo
[31] = Tmax in Han Wistar rat at 5 mg/kg, po by LC-MS/MS analysis; type: ADME, organism-based; conditions: in vivo
[32] = AUC (0 to t) in Han Wistar rat at 5 mg/kg, po by LC-MS/MS analysis; type: ADME, organism-based; conditions: in vivo
[33] = AUC (0 to infinity) in Han Wistar rat at 5 mg/kg, po by LC-MS/MS analysis; type: ADME, organism-based; set-up: dose 5 mg/kg, time infinity, route oral; conditions: in vivo
[34] = Oral availability in Han Wistar rat at 5 mg/kg by LC-MS/MS analysis; type: ADME, organism-based; conditions: in vivo
[35] = Clearance in Beagle dog at 1 mg/kg, iv by LC-MS/MS analysis; type: ADME, organism-based, Canis lupus familiaris; conditions: in vivo
[36] = Volume of distribution at steady state in Beagle dog at 1 mg/kg, iv by LC-MS/MS analysis; type: ADME, organism-based, Canis lupus familiaris; conditions: in vivo, read-out: Vdss
[37] = Half life in Beagle dog at 1 mg/kg, iv by LC-MS/MS analysis; type: ADME, organism-based, Canis lupus familiaris; conditions: in vivo
[38] = AUC (0 to t) in Beagle dog at 1 mg/kg, iv by LC-MS/MS analysis; type: ADME, organism-based, Canis lupus familiaris; conditions: in vivo
[39] = AUC (0 to infinity) in Beagle dog at 1 mg/kg, iv by LC-MS/MS analysis; type: ADME, organism-based, Canis lupus familiaris; set-up: dose 1 mg/kg, route intravenous, time infinity; conditions: in vivo
[40] = Half life in Beagle dog at 1 mg/kg, po by LC-MS/MS analysis; type: ADME, organism-based, Canis lupus familiaris; conditions: in vivo
[41] = Cmax in Beagle dog at 1 mg/kg, po by LC-MS/MS analysis; type: ADME, organism-based, Canis lupus familiaris; set-up: dose 1 mg/kg, route oral; conditions: in vivo
[42] = Tmax in Beagle dog at 1 mg/kg, po by LC-MS/MS analysis; type: ADME, organism-based, Canis lupus familiaris; conditions: in vivo
[43] = AUC (0 to t) in Beagle dog at 1 mg/kg, po by LC-MS/MS analysis; type: ADME, organism-based, Canis lupus familiaris; conditions: in vivo
[44] = AUC (0 to infinity) in Beagle dog at 1 mg/kg, po by LC-MS/MS analysis; type: ADME, organism-based, Canis lupus familiaris; set-up: dose 1 mg/kg, route oral, time infinity; conditions: in vivo
[45] = Oral bioavailability in Beagle dog at 1 mg/kg by LC-MS/MS analysis; type: ADME, organism-based, Canis lupus familiaris; conditions: in vivo
[46] = molecular target: T1, Nonstructural protein 5A (Hepatitis C virus); experiment: Potency index, ratio of EC50 of cpd1 to EC50 of compound for inhibition of HCV genotype 2a con NS5A infected in HuH-Lcu-Neo cells assessed as reduction in viral replication incubated for 48 hrs by luciferase reporter gene assay; type: cell-based; conditions: Hepatitis C virus subtype 2a

With `COC(=O)N[C@H](C(=O)N1[C@H](c2ncc(-c3ccc4c(c3)-c3ccc(-c5cnc([C@@H]6C[C@@H]7CCC[C@@H]7N6C(=O)[C@@H](NC(=O)OC)[C@@H](C)OC)[nH]5)cc3-4)[nH]2)C[C@@H]2CCC[C@@H]21)[C@@H](C)OC` [listing 1 of 2 here] the Ratio EC50 [1] was 462, the Ratio EC50 [2] was 74 and the Ratio EC50 [3] was 20. For the same molecule, the Ratio EC50 [4] was 37, the FC [5] was 1.8 to 3.1 and the FC [6] was > 5. The fold change (FC) [7] was 1.8 to 3.1, the fold change (FC) [8] was 1.8 to 3.1 and the inhibition [9] was “inactive”. For the same molecule, the inhibition [10] was “inactive”, the inhibition [11] was “inactive” and the inhibition [12] was “inactive”.
With `COC(=O)N[C@H](C(=O)N1[C@H](c2ncc(-c3ccc4c(c3)-c3ccc(-c5cnc([C@@H]6C[C@@H]7CCC[C@@H]7N6C(=O)[C@@H](NC(=O)OC)[C@@H](C)OC)[nH]5)cc3-4)[nH]2)C[C@@H]2CCC[C@@H]21)[C@@H](C)OC` [listing 2 of 2 here] the clearance [13] was 15.4 mL/min/kg, the Vd [14] was 1.3 L/kg and the half-life [15] was 1.7 h. It also gave an AUC(0-t) [16] of 1070 ng·h/mL, an AUC(0-inf) [17] of 1100 ng·h/mL and a half-life [18] of 1.7 h. It also gave a Cmax [19] of 506 ng/mL, a Tmax [20] of 2 h and an AUC(0-t) [21] of 2490 ng·h/mL. It also gave an AUC(0-inf) [22] of 2550 ng·h/mL, a bioavailability [23] of 46% and a clearance [24] of 33.8 mL/min/kg. It also gave a Vd [25] of 1.3 L/kg, a half-life [26] of 1.5 h and an AUC(0-t) [27] of 498 ng·h/mL. It also gave an AUC(0-inf) [28] of 501 ng·h/mL, a half-life [29] of 4.8 h and a Cmax [30] of 32 ng/mL. For the same molecule, the Tmax [31] was 2 h, the AUC(0-t) [32] was 178 ng·h/mL and the AUC(0-inf) [33] was 216 ng·h/mL. For the same molecule, the bioavailability [34] was 9%, the clearance [35] was 5.3 mL/min/kg and the Vd [36] was 1 L/kg. It also gave a half-life [37] of 5.2 h, an AUC(0-t) [38] of 3140 ng·h/mL and an AUC(0-inf) [39] of 3180 ng·h/mL. For the same molecule, the half-life [40] was 6 h, the Cmax [41] was 99 ng/mL and the Tmax [42] was 4 h. For the same molecule, the AUC(0-t) [43] was 593 ng·h/mL, the AUC(0-inf) [44] was 633 ng·h/mL and the bioavailability [45] was 20%.
With `CN(C)[C@@H](C(=O)N1CCC[C@H]1c1ncc(-c2ccc3c(c2)-c2ccc(-c4cnc([C@@H]5CCCN5C(=O)[C@@H](c5ccccc5)N(C)C)[nH]4)cc2-3)[nH]1)c1ccccc1` the Ratio EC50 [46] was 98.

From ChEMBL document CHEMBL4354870, “GSK2818713, a Novel Biphenylene Scaffold-Based Hepatitis C NS5A Replication Complex Inhibitor with Broad Genotype Coverage” (J Med Chem, 2020)
